In brackets after ≈: the same amount, converted by molar mass. Positions of bridges follow the written chain, without caps; N, C: chain ends. Non-standard residues stand in square brackets, D forms with d. Residues, ends and D or L forms follow the SMILES beside them. *: point of attachment. Benzoyl(4-CF3) = O=C(c1ccc(C(F)(F)F)cc1)*; X7 = O=C(c1cc(F)cc(C(F)(F)F)c1)*; X6 = O=C(c1ccc(F)c(Cl)c1)*; dNle = CCCC[C@@H](N)C(=O)O; Nonanoyl = CCCCCCCCC(=O)*; X1 = CC[C@H](C)CCCCC(=O)*; Heptanoyl = CCCCCCC(=O)*; Octanoyl = CCCCCCCC(=O)*; Dab = NCC[C@H](N)C(=O)O; Abu = CC[C@H](N)C(=O)O; Dap = NC[C@H](N)C(=O)O
Experiments:
A. baumannii ATCC 19606 = experiment: In vivo efficacy in mouse blood infection model (neutropenic Swiss mice); conditions: compound, free base 4 mg/kg intravenously 2 h after inoculation, blood at 4 h
In short: (§1)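 Neutropenic Swiss mice (cyclophosphamide 150 mg/kg day −4, 100 mg/kg day −1, i.p.) infected i.v. with early log-phase bacteria; 4 mg/kg free base i.v. given 2 h post-inoculation. Blood CFU by cardiac puncture 4 h post-dose; Δlog10 CFU/mL treated versus saline controls.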

[1] = system: K. pneumoniae FADDI-KP032; experiment: as above; conditions: compound, free base 4 mg/kg intravenously 2 h after inoculation, blood at 4 h
In short: as §1

P. aeruginosa ATCC 27853 = experiment: as above; conditions: compound, free base 4 mg/kg intravenously 2 h after inoculation, blood at 4 h
In short: as §1

Acinetobacter baumannii = system: Acinetobacter baumannii
In short: (§2)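 Minimum inhibitory concentrations come from CLSI-standard broth microdilution in cation-adjusted Mueller-Hinton broth.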

Klebsiella pneumoniae = system: Klebsiella pneumoniae
In short: as §2

Pseudomonas aeruginosa = system: Pseudomonas aeruginosa
In short: as §2

Enterobacter cloacae = system: Enterobacter cloacae
In short: as §2

SMILES | Δ log (Treated-Control at 4 h) (A. baumannii ATCC 19606) [log10 CFU/mL] | Δ log (Treated-Control at 4 h) [1] [log10 CFU/mL] | Δ log (Treated-Control at 4 h) (P. aeruginosa ATCC 27853) [log10 CFU/mL] | MIC (Acinetobacter baumannii) [µg/mL] | Minimum inhibitory concentration, Ab A ATCC 17978 (Acinetobacter baumannii) [µg/mL] | Minimum inhibitory concentration, Ab ATCC 19606 (Acinetobacter baumannii) [µg/mL] | Minimum inhibitory concentration, Ab FADDI-AB034 (Acinetobacter baumannii) [µg/mL] | MIC (Klebsiella pneumoniae) [µg/mL] | Minimum inhibitory concentration, Pa ATCC 27853 (Pseudomonas aeruginosa) [µg/mL] | Minimum inhibitory concentration, Pa FADDI-PA022 (Pseudomonas aeruginosa) [µg/mL] | Minimum inhibitory concentration, Pa FADDI-PA025 (Pseudomonas aeruginosa) [µg/mL] | Minimum inhibitory concentration, Ec FADDI-EC001 (Enterobacter cloacae) [µg/mL] | Minimum inhibitory concentration, Ec FADDI-EC003 (Enterobacter cloacae) [µg/mL] | Minimum inhibitory concentration, Ec FADDI-EC006 (Enterobacter cloacae) [µg/mL] | MIC (Pseudomonas aeruginosa) [µg/mL] | further results
CCCCCCCC(=O)N[C@@H](CCN)C(=O)N[C@H](C(=O)N[C@H](CO)C(=O)N[C@H]1CCNC(=O)[C@H]([C@@H](C)O)NC(=O)[C@H](CCN)NC(=O)[C@H](CCN)NC(=O)[C@H]([C@@H](C)O)NC(=O)[C@@H](CCCC)NC(=O)[C@H](CCN)NC1=O)[C@@H](C)O [Compound 7] (Octanoyl-[Dab]T[dS][Dab][Dab][dNle]T[Dab][Dab]T; lactam 4-C) | −2.87 | −3.39 | −0.61 | 0.25 (≈ 0.221 µM) | <0.125 | 0.25 (≈ 0.221 µM) | <0.125 | <0.125 | 2 (≈ 1.77 µM) | 4 (≈ 3.54 µM) | >32 | 0.25 (≈ 0.221 µM) | 0.25 (≈ 0.221 µM) | 0.5 (≈ 0.442 µM) |  | 
CC[C@H](C)CCCCC(=O)N[C@@H](CCN)C(=O)N[C@H](C(=O)N[C@@H](CCN)C(=O)N[C@H]1CCNC(=O)[C@H]([C@@H](C)O)NC(=O)[C@H](CCN)NC(=O)[C@H](CCN)NC(=O)[C@H]([C@@H](C)O)NC(=O)[C@@H](CC(C)C)NC(=O)[C@H](CCN)NC1=O)[C@@H](C)O [Compound 152, polymyxin M1] (X1-[Dab]T[Dab][Dab][Dab][dL]T[Dab][Dab]T; lactam 4-C) | −1.61 | −3.86 | −3.24 | 1 (≈ 0.864 µM) |  |  |  | 0.5 (≈ 0.432 µM) |  |  |  |  |  |  | 1 (≈ 0.864 µM) | Minimum inhibitory concentration (MIC), Ab ATCC 17978 (Acinetobacter baumannii): 1 µg/mL (≈ 0.864 µM); Minimum inhibitory concentration (MIC), Ab ATCC 19606 (Acinetobacter baumannii): 1 µg/mL (≈ 0.864 µM); Minimum inhibitory concentration (MIC), Ab FADDI-AB034 (Acinetobacter baumannii): 1 µg/mL (≈ 0.864 µM); Minimum inhibitory concentration (MIC), Pa ATCC 27853 (Pseudomonas aeruginosa): 1 µg/mL (≈ 0.864 µM); Minimum inhibitory concentration (MIC), Pa FADDI-PA022 (Pseudomonas aeruginosa): 1 µg/mL (≈ 0.864 µM); Minimum inhibitory concentration (MIC), Pa FADDI-PA025 (Pseudomonas aeruginosa): 32 µg/mL (≈ 27.6 µM); Minimum inhibitory concentration (MIC), Ec FADDI-EC001 (Enterobacter cloacae): 0.5 µg/mL (≈ 0.432 µM); Minimum inhibitory concentration (MIC), Ec FADDI-EC003 (Enterobacter cloacae): 0.5 µg/mL (≈ 0.432 µM); Minimum inhibitory concentration (MIC), Ec FADDI-EC006 (Enterobacter cloacae): 0.25 µg/mL (≈ 0.216 µM)
CC[C@@H]1NC(=O)[C@@H](CC(C)C)NC(=O)[C@H](CCN)NC(=O)[C@@H](NC(=O)[C@H](CN)NC(=O)[C@@H](NC(=O)[C@H](CCN)NC(=O)c2ccc(F)c(Cl)c2)[C@@H](C)O)CCNC(=O)[C@H]([C@@H](C)O)NC(=O)[C@H](CCN)NC(=O)[C@H](CCN)NC1=O [Compound 110] (X6-[Dab]T[Dap][Dab][Dab][dL][Abu][Dab][Dab]T; lactam 4-C) | −1.57 | −2.50 | −3.30 | 2 (≈ 1.75 µM) | 0.5 (≈ 0.437 µM) | 2 (≈ 1.75 µM) | 0.5 (≈ 0.437 µM) | 0.25 (≈ 0.219 µM) | 0.5 (≈ 0.437 µM) | 0.5 (≈ 0.437 µM) | 1 (≈ 0.874 µM) | 1 (≈ 0.874 µM) | 1 (≈ 0.874 µM) | 0.5 (≈ 0.437 µM) | 0.5 (≈ 0.437 µM) | 
CCCCCCCCC(=O)N[C@@H](CCN)C(=O)N[C@H](C(=O)N[C@@H](CN)C(=O)N[C@H]1CCNC(=O)[C@H]([C@@H](C)O)NC(=O)[C@H](CCN)NC(=O)[C@H](CCN)NC(=O)[C@H]([C@@H](C)O)NC(=O)[C@@H](CC(C)C)NC(=O)[C@H](CCN)NC1=O)[C@@H](C)O [Compound 58] (Nonanoyl-[Dab]T[Dap][Dab][Dab][dL]T[Dab][Dab]T; lactam 4-C) | −2.15 | −3.21 | −3.00 | 0.25 (≈ 0.219 µM) | 0.5 (≈ 0.437 µM) | 0.25 (≈ 0.219 µM) | 1 (≈ 0.875 µM) | 0.25 (≈ 0.219 µM) | 0.5 (≈ 0.437 µM) | 2 (≈ 1.75 µM) | 2 (≈ 1.75 µM) | 0.25 (≈ 0.219 µM) | 0.25 (≈ 0.219 µM) | 0.5 (≈ 0.437 µM) | 0.5 (≈ 0.437 µM) | 
CCCCCCC(=O)N[C@@H](CCN)C(=O)N[C@H](C(=O)N[C@@H](CN)C(=O)N[C@H]1CCNC(=O)[C@H]([C@@H](C)O)NC(=O)[C@H](CCN)NC(=O)[C@H](CCN)NC(=O)[C@H](CC)NC(=O)[C@@H](Cc2ccccc2)NC(=O)[C@H](CCN)NC1=O)[C@@H](C)O [Compound 131] (Heptanoyl-[Dab]T[Dap][Dab][Dab][dF][Abu][Dab][Dab]T; lactam 4-C) | −1.75 | −3.44 | −3.80 | 0.25 (≈ 0.221 µM) | 0.25 (≈ 0.221 µM) | 0.25 (≈ 0.221 µM) | 0.25 (≈ 0.221 µM) | <0.125 | 0.5 (≈ 0.441 µM) | 2 (≈ 1.76 µM) | 4 (≈ 3.53 µM) | <0.125 | <0.125 | <0.125 | 0.5 (≈ 0.441 µM) | 
CC[C@@H]1NC(=O)[C@@H](CC(C)C)NC(=O)[C@H](CCN)NC(=O)[C@@H](NC(=O)[C@H](CN)NC(=O)[C@@H](NC(=O)[C@H](CCN)NC(=O)c2cc(F)cc(C(F)(F)F)c2)[C@@H](C)O)CCNC(=O)[C@H]([C@@H](C)O)NC(=O)[C@H](CCN)NC(=O)[C@H](CCN)NC1=O [Compound 108] (X7-[Dab]T[Dap][Dab][Dab][dL][Abu][Dab][Dab]T; lactam 4-C) | −1.82 | −2.84 | −2.32 | 0.5 (≈ 0.425 µM) | 0.5 (≈ 0.425 µM) | 0.5 (≈ 0.425 µM) | 0.5 (≈ 0.425 µM) | 0.25 (≈ 0.212 µM) | 0.5 (≈ 0.425 µM) | 0.5 (≈ 0.425 µM) | 2 (≈ 1.7 µM) | 1 (≈ 0.849 µM) | 0.5 (≈ 0.425 µM) | 0.5 (≈ 0.425 µM) | 0.5 (≈ 0.425 µM) | 
CC[C@@H]1NC(=O)[C@@H](CC(C)C)NC(=O)[C@H](CCN)NC(=O)[C@@H](NC(=O)[C@H](CN)NC(=O)[C@@H](NC(=O)[C@H](CCN)NC(=O)c2ccc(C(F)(F)F)cc2)[C@@H](C)O)CCNC(=O)[C@H]([C@@H](C)O)NC(=O)[C@H](CCN)NC(=O)[C@H](CCN)NC1=O [Compound 74] ({Benzoyl(4-CF3)}-[Dab]T[Dap][Dab][Dab][dL][Abu][Dab][Dab]T; lactam 4-C) | −2.34 | −2.94 | −3.10 | 0.5 (≈ 0.431 µM) | 0.5 (≈ 0.431 µM) | 0.5 (≈ 0.431 µM) | 1 (≈ 0.863 µM) | 0.25 (≈ 0.216 µM) | 0.5 (≈ 0.431 µM) | 0.5 (≈ 0.431 µM) | 2 (≈ 1.73 µM) | <0.125 | 0.25 (≈ 0.216 µM) | 2 (≈ 1.73 µM) | 0.5 (≈ 0.431 µM) | 
CCCCCCCC(=O)N[C@@H](CCN)C(=O)N[C@H](C(=O)N[C@@H](CCN)C(=O)N[C@H]1CCNC(=O)[C@H]([C@@H](C)O)NC(=O)[C@H](CCN)NC(=O)[C@H](CCN)NC(=O)[C@H]([C@@H](C)O)NC(=O)[C@@H](CC(C)C)NC(=O)[C@H](CCN)NC1=O)[C@@H](C)O [Compound 20] (Octanoyl-[Dab]T[Dab][Dab][Dab][dL]T[Dab][Dab]T; lactam 4-C) | −1.86 | −3.50 | −2.13 | 4 (≈ 3.5 µM) | 4 (≈ 3.5 µM) | 4 (≈ 3.5 µM) | 2 (≈ 1.75 µM) | 0.25 (≈ 0.219 µM) | 0.5 (≈ 0.437 µM) | 0.5 (≈ 0.437 µM) | >32 | <0.125 | 0.5 (≈ 0.437 µM) | <0.125 | 0.5 (≈ 0.437 µM) | 
